Measurements as given in patent publication US10000471B2, “Pyrazole P38 map kinase inhibitors” (Respivert Limited, priority 2010, dated 2018).
Read-outs that look alike come from different tables or passages of the source.

Columns and labels:
[1] = tested on: IL-8 release in d-U937 cells; assay: LPS-induced IL-8 release in d-U937 cells; type: cell-based, human
Method in brief: (§1)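 Sandwich ELISA of TNFα and IL-8 in supernatants after 4 hr 0.1 μg/mL LPS (E. coli O111:B4) challenge of U937 cells differentiated with PMA 100 ng/ml for 48–72 hr, compound added 2 hr beforehand. IL-8: IC50 from inhibition versus vehicle; TNFα: REC50 from inhibition as percentage of 10 μg/mL BIRB796 effect.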

[2] = tested on: TNFα release in THP-1 cells; assay: LPS-induced TNFα release in THP-1 cells; type: cell-based, human
Method in brief: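 IC50 derived from concentration-response of TNFα inhibition relative to vehicle, with TNFα quantified by sandwich ELISA in supernatants. THP-1 cells were challenged 4 hr with LPS (E. coli, 3 μg/mL).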

[3] = tested on: Differentiated U937 cells; assay: Cell viability MTT assay; type: cell-based, human; conditions: negative = apparent increase in viability; for MTT Assay (Viability) 4 h d-U937, percentage loss of cell viability: 4 hr in 5% FCS; for MTT Assay (Viability) 24 h d-U937, percentage loss of cell viability: 24 h in 10% FCS
Method in brief: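 Differentiated U937 cells pre-incubated with compound either 4 hr in 5% FCS or 24 h in 10% FCS, then 1 hr MTT. Formazan dissolved in DMSO, absorbance at 550 nm. Percentage viability loss relative to 0.5% DMSO vehicle; apparent increases appear as negative percentages.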

[4] = target: T1, p38 MAPKγ (MAPK12) (Homo sapiens, UniProt P53778); assay: Enzyme inhibition assay (FRET, Z-LYTE), p38 MAPKγ; type: biochemical; conditions: read-out: Enzyme Inhibition IC50 p38γ
T1 construct: purchased Invitrogen
T1 sequence (P53778 1-367): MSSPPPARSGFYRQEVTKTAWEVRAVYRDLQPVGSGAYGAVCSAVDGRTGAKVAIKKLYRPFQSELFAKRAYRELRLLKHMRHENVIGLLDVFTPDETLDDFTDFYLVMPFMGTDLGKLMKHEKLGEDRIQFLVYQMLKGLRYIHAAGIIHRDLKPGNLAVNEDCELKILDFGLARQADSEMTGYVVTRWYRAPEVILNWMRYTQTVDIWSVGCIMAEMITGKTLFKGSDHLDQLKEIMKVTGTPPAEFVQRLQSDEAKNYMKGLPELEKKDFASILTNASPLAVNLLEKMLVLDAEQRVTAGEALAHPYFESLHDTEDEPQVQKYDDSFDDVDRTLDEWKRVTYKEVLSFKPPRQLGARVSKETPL
Method in brief: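 Z-LYTE FRET readout: after 1 h kinase reaction (ATP 100 μM, peptide 2 μM) following 2 h RT enzyme–compound preincubation in HEPES, protease cleaves only unphosphorylated peptide. Percent inhibition from donor/acceptor ratio relative to control; IC50 fitted from the curve.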

[5] = tested on: TNFα release in d-U937 cells; assay: LPS-induced TNFα release in d-U937 cells; type: cell-based, human
Method in brief: as §1

[6] = tested on: ICAM-1 induction in BEAS2B cells; assay: Poly I:C-induced ICAM-1 induction in BEAS2B cells; type: cell-based, human; conditions: read-out: PolyIC/ICAM1 IC50 BEAS2B
Method in brief: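 IC50 reflects inhibition of cell-surface ICAM-1 relative to vehicle, read by ELISA (OD450 against 655 nm) and divided by crystal violet OD595 for cell number. Readings were taken 18 hr after transfection of 1 μg/mL poly I:C into BEAS2B cells. Compound was added 2 hr before stimulation.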

[7] = target: T2, p38 MAPKα isoform (MAPK14) (Homo sapiens, UniProt Q16539); assay: Enzyme inhibition assay (FRET, Z-LYTE), p38 MAPKα via MAPKAP-K2 activation; type: biochemical; conditions: read-out: Enzyme Inhibition IC50 p38α
T2 construct: purchased Invitrogen
T2 sequence (Q16539 whole entry, canonical isoform): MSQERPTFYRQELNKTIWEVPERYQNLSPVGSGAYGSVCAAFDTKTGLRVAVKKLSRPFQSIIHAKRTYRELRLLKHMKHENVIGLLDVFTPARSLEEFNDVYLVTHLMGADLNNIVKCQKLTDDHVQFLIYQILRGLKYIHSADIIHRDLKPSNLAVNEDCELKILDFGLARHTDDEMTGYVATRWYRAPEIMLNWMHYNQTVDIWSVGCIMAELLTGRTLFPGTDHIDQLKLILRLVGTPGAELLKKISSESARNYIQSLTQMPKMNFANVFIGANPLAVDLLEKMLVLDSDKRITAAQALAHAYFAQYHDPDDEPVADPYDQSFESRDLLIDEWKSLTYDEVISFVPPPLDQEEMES
Method in brief: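 Z-LYTE FRET format, in which protease cleaves only non-phosphorylated peptide, read after 1 h development. Compound was mixed with p38 MAPKα for 2 h at RT, and inhibition was gauged from MAPKAP-K2 activation/phosphorylation rather than directly. Percent inhibition against an uninhibited control was fitted to give IC50.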

[8] = Homo sapiens, dU937, relative to 10 μg/mL BIRB796, read-out: LPS/TNFα REC50 d-U937

IC50 ([1]; Homo sapiens, dU937) [nM] | IC50 ([2]; Homo sapiens) [nM] | IC50 [4] [nM] | EC50 [5, 8] [nM] | IC50 [7] [nM] | IC50 [1] [nM] | IC50 [2] [nM] | EC50 ([5]; relative to 10 μg/mL BIRB796, read-out: LPS/TNFα REC50 d-U937) [nM] | SMILES | MTT Assay (Viability) 4 h d-U937, percentage loss of cell viability [3] [%] | MTT Assay (Viability) 24 h d-U937, percentage loss of cell viability [3] [%] | IC50 ([6]; Homo sapiens, BEAS-2B) [nM] | IC50 [6] [nM]
0.4 | 0.4 | 24.3 | 0.2 | 18.4 | – | – | – | CC(C)(C)c1cc(NC(=O)Nc2ccc(Oc3ccnc(NC(=O)N4CCCC4)c3)c(Cl)c2Cl)n(-c2ccc(CO)cc2)n1 [Example 77, N-(4-(4-(3-(3-tert-butyl-1-(4-hydroxymethylphenyl)-1H-pyrazol-5-yl)ureido)-2,3-dichlorophenoxy)pyridin-2-yl)pyrrolidine-1-carboxamide] | −8.8 | 53.3 | 2.5 | –
2.2 | 1.4 | 96.2 | 1.6 | 84.6 | – | – | – | COc1ccc(-n2nc(C(C)(C)C)cc2NC(=O)Nc2ccc(Oc3ccnc(NC(=O)NC4CC4)c3)c(C#N)c2Cl)cc1 [Example 78, 1-(3-tert-butyl-1-(4-methoxyphenyl)-1H-pyrazol-5-yl)-3-(2-chloro-3-cyano-4-(2-(3-cyclopropylureido)pyridin-4-yloxy)phenyl) urea] | 1.0 | 20.9 | 2.2 | –
6.6 | 0.5 | 36.6 | 0.4 | 32.3 | – | – | – | COc1ccc(-n2nc(C(C)(C)C)cc2NC(=O)Nc2ccc(Oc3ccnc(NC(=O)N4CCCC4)c3)c(C#N)c2Cl)cc1 [Example 79, N-(4-(4-(3-(3-tert-butyl-1-(4-methoxyphenyl)-1H-pyrazol-5-yl)ureido)-3-chloro-2-cyanophenoxy)pyridin-2-yl)pyrrolidine-1-carboxamide] | −13.9 | 23.2 | 1.3 | –
– | – | 58.5 | – | 7.7 | 4.9 | 1.1 | 0.8 | COc1ccc(-n2nc(C(C)(C)C)cc2NC(=O)Nc2ccc(Oc3ccnc(NC(=O)N4CC[C@@H](N(C)C)C4)c3)c(Cl)c2Cl)cc1 [Example 81, (R)-N-(4-(4-(3-(3-tert-butyl-1-(4-methoxyphenyl)-1H-pyrazol-5-yl)ureido)-2,3-dichlorophenoxy)pyridin-2-yl)-3-(dimethylamino) pyrrolidine-1-carboxamide] | −8.7 | 33.3 | – | 14
4.6 | 0.3 | 33.6 | 1.8 | 14.1 | – | – | – | COc1ccc(-n2nc(C(C)(C)C)cc2NC(=O)Nc2ccc(Oc3ccnc(NC(=O)N4CC[C@H](N(C)C)C4)c3)c(Cl)c2Cl)cc1 [Example 82, (S)-N-(4-(4-(3-(3-tert-butyl-1-(4-methoxyphenyl)-1H-pyrazol-5-yl)ureido)-2,3-dichlorophenoxy)pyridin-2-yl)-3-(dimethylamino) pyrrolidine-1-carboxamide] | −13.2 | 20.5 | 2.1 | –
34 | 0.7 | 19.8 | 1.7 | 6.7 | – | – | – | CN(C)[C@H]1CCN(C(=O)Nc2cc(Oc3ccc(NC(=O)Nc4cc(C(C)(C)C)nn4-c4ccc(CO)cc4)c(Cl)c3Cl)ccn2)C1 [Example 83, (S)-N-(4-(4-(3-(3-tert-butyl-1-(4-hydroxymethylphenyl)-1H-pyrazol-5-yl)ureido)-2,3-dichlorophenoxy)pyridin-2-yl)-3-(dimethyl-amino)pyrrolidine-1-carboxamide] | −9.9 | 34.3 | 2.4 | –
9.6 | 1.2 | 27 | 1.4 | 13.8 | – | – | – | COc1cc(-n2nc(C(C)(C)C)cc2NC(=O)Nc2ccc(Oc3ccnc(NC(=O)N4CC[C@H](N(C)C)C4)c3)c(Cl)c2Cl)ccc1CO [Example 84, (S)-N-(4-(4-(3-(3-tert-butyl-1-(4-hydroxymethyl-3-methoxyphenyl)-1H-pyrazol-5-yl)ureido)-2,3-dichlorophenoxy)pyridin-2-yl)-3-(dimethylamino)pyrrolidine-1-carboxamide] | 3.2 | 56.7 | 2.6 | –
5.4 | 0.3 | 27.2 | 1.1 | 12.8 | – | – | – | COc1ccc(-n2nc(C(C)(C)C)cc2NC(=O)Nc2ccc(Oc3ccnc(NC(=O)N4CCC(O)C4)c3)c(Cl)c2Cl)cc1 (stereo not drawn) [Example 85, N-(4-(4-(3-(3-tert-butyl-1-(4-methoxyphenyl)-1H-pyrazol-5-yl)ureido)-2,3-dichlorophenoxy)pyridin-2-yl)-3-hydroxypyrrolidine-1-carboxamide] | −25.1 | 58.6 | 0.6 | –
2.6 | 0.8 | 436 | 2.7 | 138 | – | – | – | COc1ccc(-n2nc(C(C)(C)C)cc2NC(=O)Nc2ccc(Oc3ccnc(NC(=O)N4CCCC4(C)C)c3)c(Cl)c2Cl)cc1 [Example 86, N-(4-(4-(3-(3-tert-butyl-1-(4-methoxyphenyl)-1H-pyrazol-5-yl)ureido)-2,3-dichlorophenoxy)pyridin-2-yl)-2,2-dimethylpyrrolidine-1-carboxamide] | −5.1 | 26.7 | 8 | –
2.1 | 1 | 16.9 | 1.7 | 14.5 | – | – | – | COc1ccc(-n2nc(C(C)(C)C)cc2NC(=O)Nc2ccc(Oc3ccnc(NC(=O)N4CCC(N(C)C)CC4)c3)c(Cl)c2Cl)cc1 [Example 87, N-(4-(4-(3-(3-tert-butyl-1-(4-methoxyphenyl)-1H-pyrazol-5-yl)ureido)-2,3-dichlorophenoxy)pyridin-2-yl)-4-(dimethylamino)piperidine-1-carboxamide] | 7.1 | 39.3 | 1 | –
> 1770 | 989 | > 17700 | 27 | 2090 | – | – | – | COCC(=O)Nc1cc(Oc2c(NC(=O)Nc3cc(C(C)(C)C)nn3-c3ccc(C)cc3)ccc(F)c2F)ccn1 [Example 88, N-(4-(6-(3-(3-tert-butyl-1-p-tolyl-1H-pyrazol-5-yl)ureido)-2,3-difluorophenoxy)pyridin-2-yl)-2-methoxyacetamide] | 12.3 | 10.0 | 1690 | –
13.4 | 1.7 | 175 | 0.3 | 58.8 | – | – | – | COCC(=O)Nc1cc(Oc2ccc(NC(=O)Nc3cc(C(C)(C)C)nn3-c3ccc(C)cc3)c(Cl)c2Cl)ncn1 [Example 89, N-(6-(4-(3-(3-tert-butyl-1-p-tolyl-1H-pyrazol-5-yl)ureido)-2,3-dichlorophenoxy)pyrimidin-4-yl)-2-methoxyacetamide] | −49.9 | −7.5 | 1.8 | –
